Experiments:
[1] = biological target: T1, r-hP2X7 (rat 1-346, human 347-595) (Rattus norvegicus, UniProt Q64663, A359S/A378V/A493C/A522V/A540S/C350F/D413N/D475V/E375Q/E438D/E521H/E537D/E539D/G538V/H448D/I354L/I464K/I516L/I541T/K419R/K544R/K576R/L353F/L437T/L525F/M459I/N356D/N481S/N490S/P390S/P407S/Q433A/Q463R/Q505A/Q585E/R366H/R491H/R501K/S370W/S443P/S445A/S449T/S514R/S552C/T348A/T361N/T434M/T584S/V367I/V467T/V559G/W410R/Y593S); assay: Whole-cell recordings in HEK293 cells expressing chimeric r-hP2X7 receptors; type: cell-based; details: low divalent concentrations, after removal of BzATP, n=10
T1 construct: r-hP2X7 (rat 1-346, human 347-595); expressed in transfected cells; host or cells: HEK293 (transient)
T1 sequence (Q64663 1-595 T348A/C350F/L353F/I354L/N356D/A359S/T361N/R366H/V367I/S370W/E375Q/A378V/P390S/P407S/W410R/D413N/K419R/Q433A/T434M/L437T/E438D/S443P/S445A/H448D/S449T/M459I/Q463R/I464K/V467T/D475V/N481S/N490S/R491H/A493C/R501K/Q505A/S514R/I516L/E521H/A522V/L525F/E537D/G538V/E539D/A540S/I541T/K544R/S552C/V559G/K576R/T584S/Q585E/Y593S): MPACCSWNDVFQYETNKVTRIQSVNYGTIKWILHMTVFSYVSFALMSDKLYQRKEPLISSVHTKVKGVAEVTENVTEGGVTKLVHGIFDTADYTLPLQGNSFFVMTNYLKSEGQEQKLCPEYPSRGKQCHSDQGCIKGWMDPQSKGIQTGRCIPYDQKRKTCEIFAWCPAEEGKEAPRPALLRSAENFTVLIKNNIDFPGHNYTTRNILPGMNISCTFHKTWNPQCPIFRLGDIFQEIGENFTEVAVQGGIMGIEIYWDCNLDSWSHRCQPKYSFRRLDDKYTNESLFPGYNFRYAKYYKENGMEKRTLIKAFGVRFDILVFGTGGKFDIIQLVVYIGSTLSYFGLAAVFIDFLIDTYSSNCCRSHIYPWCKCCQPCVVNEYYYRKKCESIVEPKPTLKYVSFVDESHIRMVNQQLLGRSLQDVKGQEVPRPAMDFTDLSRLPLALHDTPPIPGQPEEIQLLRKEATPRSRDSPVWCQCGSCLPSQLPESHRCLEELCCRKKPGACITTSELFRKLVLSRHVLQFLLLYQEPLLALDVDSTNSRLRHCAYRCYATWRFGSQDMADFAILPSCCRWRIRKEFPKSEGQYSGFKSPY
From the text: (§1) Chimeras. A silent restriction site (NheI) was introduced at the equivalent positions in the rat and human cDNAs using the Pfu mutagenesis kit (Stratagene) (T to G at 1069 in rP2X7; G to A at 1072 in hP2X7) . A NheI-XhoI fragment corresponding to 3′ extremity of each cDNA was then excised and subcloned in the opposite plasmid (i.e. human 3′ end into rat background). The resulting chimeras were h-rP2X7 (human 1-346, rat 347-595) and r-hP2X7 (rat 1-346, human 347-595) (FIG. 5). All constructions were sequenced on their entire coding region.
(§2) Cell culture. HEK293 cells were transiently transfected with cDNA (1 μg/ml) and lipofectin dissolved in Optimem (GIBCO) placed into petri dishes containing four coverslips onto which cells were plated at a density of about 8×10^4/coverslip. Cells were washed 5 h later and normal DMEM applied. Electrophysiological studies or dye uptake measurements were carried out 18-49 h later. For each set of transfections, parallel experiments were performed on HEK cells transfected with cDNA encoding both rP2X7 and hP2X7 receptors.
(§3) Electrophysiological experiments. Whole-cell recordings were made using the EPC9 patch-clamp amplifier and Pulse acquisition programs (HEKA, Lambrecht, Germany). Patch pipettes (5-7 MΩ) contained (mM) CsCl or NaCl 154, EGTA 10, HEPES 5. […]

[2] = biological target: T2, h-rP2X7 (human 1-346, rat 347-595) (Homo sapiens, UniProt Q99572, A348T/A433Q/A445S/A505Q/C493A/C552S/D356N/D438E/D448H/D537E/D539E/E585Q/F350C/F353L/F525L/G559V/H366R/H491R/H521E/I367V/I459M/K464I/K501R/L354I/L516I/M434T/N361T/N413D/P443S/Q375E/R410W/R419K/R463Q/R514S/R544K/R576K/S359A/S390P/S407P/S481N/S490N/S540A/S584T/S593Y/T437L/T449S/T467V/T541I/V378A/V475D/V522A/V538G/W370S); assay: Whole-cell recordings in HEK293 cells expressing chimeric h-rP2X7 receptors; type: cell-based; details: low divalent concentrations, after removal of BzATP, n=10
T2 construct: h-rP2X7 (human 1-346, rat 347-595); expressed in transfected cells; host or cells: HEK293 (transient)
T2 sequence (Q99572 1-595 A348T/F350C/F353L/L354I/D356N/S359A/N361T/H366R/I367V/W370S/Q375E/V378A/S390P/S407P/R410W/N413D/R419K/A433Q/M434T/T437L/D438E/P443S/A445S/D448H/T449S/I459M/R463Q/K464I/T467V/V475D/S481N/S490N/H491R/C493A/K501R/A505Q/R514S/L516I/H521E/V522A/F525L/D537E/V538G/D539E/S540A/T541I/R544K/C552S/G559V/R576K/S584T/E585Q/S593Y): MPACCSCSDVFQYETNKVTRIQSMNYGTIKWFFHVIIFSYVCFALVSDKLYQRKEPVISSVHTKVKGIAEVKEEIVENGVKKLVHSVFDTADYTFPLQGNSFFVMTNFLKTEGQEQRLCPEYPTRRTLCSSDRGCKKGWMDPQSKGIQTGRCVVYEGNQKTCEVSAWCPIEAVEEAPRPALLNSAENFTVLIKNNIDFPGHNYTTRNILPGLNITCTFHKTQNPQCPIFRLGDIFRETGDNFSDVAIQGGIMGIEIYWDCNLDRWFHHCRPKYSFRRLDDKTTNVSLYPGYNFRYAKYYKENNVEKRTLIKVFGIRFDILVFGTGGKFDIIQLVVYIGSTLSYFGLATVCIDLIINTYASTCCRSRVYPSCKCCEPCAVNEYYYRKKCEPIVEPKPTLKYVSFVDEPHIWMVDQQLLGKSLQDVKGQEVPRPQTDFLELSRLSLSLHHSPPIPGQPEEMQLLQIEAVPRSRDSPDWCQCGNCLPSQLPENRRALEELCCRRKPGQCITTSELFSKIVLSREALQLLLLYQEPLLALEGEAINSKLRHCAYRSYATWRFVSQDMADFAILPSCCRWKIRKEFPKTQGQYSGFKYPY
From the text: as §1, §2, §3

**Q.** With `Nc1ncnc2c1ncn2[C@@H]1O[C@H](COP(=O)(O)OP(=O)(O)OP(=O)(O)O)[C@@H](OC(=O)c2ccc(C(=O)c3ccccc3)cc2)[C@H]1O` [BzATP, 3′-O-(4-benzoyl)benzoyl ATP] as the compound, how does the “current measured at 30 s, of peak” value [1] read?
**A.** Its value is 31±3.

**Q.** What about the “current measured at 30 s, of peak” value [2] of the same compound?
**A.** Its value is 70±4.

— patent US6509163B1, “Methods of screening modulators of mammalian P2X7 purinergic receptors” (Glaxo Group Limited, priority 1997, dated 2003)
